Common to all, as to type: cell-based, human
Assay [1] concerns sICAM-1. Nature of the assay: Soluble ICAM-1 in HLMVEC/TNF-α model (Luminex). Particulars: for sICAM-1 expression relative to TNF Control, Mean % Change: 20×HMDB amino acids, 24 h co-treatment. On the procedure:
(§1) Cells were incubated at 37° C., 5% CO2 in a humidified incubator. Cells were passaged at least 1-2 times in the complete growth medium every 2-3 days until ready to plate for cell culture studies. Once ready for experiment, HLMVECs were seeded at a density of 6K cells per well of the 96 well optical microplates (Thermofisher) in the complete growth medium described above and the plated cells were incubated for 24 hours at 37° C. in a humidified incubator with 5% CO2. […] The values are published in the Human Metabolome Database (Wishart D S, et al., Nucleic Acids Res. 2007 January; 35:D521-6) which is hereby incorporated by reference in its entirety. The medium was also supplemented with growth factors & antibiotics from EGM2-MV kit (Lonza) except the kit-provided FBS which was substituted with dialyzed FBS (Hyclone). […]). […] were run in duplicate and data was normalized to corresponding TNF-α control for respective treatments as specified in the tables. Mean percent change in level of adhesion markers are reported herein. Statistical analysis was done using two sample t-test.

In assay [2] the test system is sVCAM-1. Nature of the assay: Soluble VCAM-1 in HLMVEC/TNF-α model (Luminex). As to conditions: for sVCAM-1 expression relative to TNF Control, Mean % Change: 20×HMDB amino acids, 24 h co-treatment. On the procedure: as §1
Assay [3] concerns IL-6. Nature of the assay: IL-6 in HLMVEC/TNF-α model (ELISA). Particulars: for IL-6 expression relative to TNF Control, Mean % Change: HLMVEC/TNF-α model, 24 h, ELISA. How it is done: Cells were incubated at 37° C., 5% CO2 in a humidified incubator. Cells were passaged at least 1-2 times in the complete growth medium every 2-3 days until ready to plate for cell culture studies. Once ready for experiment, HLMVECs were seeded at a density of 6K cells per well of the 96 well optical microplates (Thermofisher) in the complete growth medium described above and the plated cells were incubated for 24 hours at 37° C. in a humidified incubator with 5% CO2. […] The values are published in the Human Metabolome Database (Wishart D S, et al., Nucleic Acids Res. 2007 January; 35:[…]-6) which is hereby incorporated by reference in its entirety. The medium was also supplemented with growth factors & antibiotics from EGM2-MV kit (Lonza) except the kit-provided FBS which was substituted with dialyzed FBS (Hyclone). […] Human MCP-1 was measured by ELISA (Human […] DuoSet ELISA, R&D Systems) at 1/70 dilution in 1× Reagent Diluent (Reagent Ancillary Kit 2, R&D Systems). Samples were run in triplicates. […] Samples were run in triplicates. Mean percent change in cytokine levels relative to vehicle are reported herein. Statistical analysis was done using two sample t-test.
A general note: ELISA stands for enzyme-linked immunosorbent assay.

In assay [4] the test system is whole blood from healthy controls. As to the kind of experiment: ROS (DCF fluorescence) in whole blood of healthy control donors, H2O2-induced. As to conditions: healthy control donors treated with H2O2; dose-responsive. On the procedure: Whole blood samples were appropriately diluted in Ca^2+- and Mg^2+-free Dulbecco's phosphate buffered saline (DPBS, Life Technologies) and the concentration of erythrocytes (RBC/mL) was measured on a Cellometer K2 Fluorescent Viability Cell Counter according to the manufacturer's RBC/AOPI protocol (Nexcelom Biosciences).
Cells were then diluted to 1×10^6 RBC/mL into either prewarmed 37° C. […] 2′-7′-dichlorofluorescin diacetate (DCF, Millipore Sigma), 20 mM in dimethyl sulfoxide (DMSO, Fisher) were added to a working concentration of 100 μM. Cells were incubated with dye for 15 minutes at 37° C., 5% CO2 in a tissue culture incubator, washed once, and resuspended in the 0.9 volumes of the same prewarmed 37° C. buffer with 5 minute spins at 500×g, accel/decal=5 in a swing arm centrifuge (Beckman Coulter). […] Where possible due to solubility constrains, pH-7.4-adjusted stock solutions of amino acids were used. Wells were mixed by pipetting and plates incubated at 37° C., 5% CO2 in a tissue culture incubator for 30 minutes. Optionally, 40 mM H2O2 (Millipore Sigma) freshly prepared in the same buffer was added to bring the concentration to 2 mM, wells mixed by pipetting, and plates were incubated an additional 30, 60, 120, or 240 minutes before fluorescence measurement of ROS signal on a Synergy H4 (BioTek) microplate reader with excitation=488 nm and emission=530 nm, and gain either set to autogain, 75, or 100.

Assay [5] relates to HLMVEC. As to the kind of experiment: META-rank score, composite of VCAM1, ICAM1 and IL6 in the HLMVEC model. As to conditions: HLMVEC + TNF-α; lower score = more optimal; 20x HMDB / 5 mM. On the procedure: The ability of single amino acids and combinations to simultaneously impact these phenotypes was measured by a META-rank score (Tables 17 and 18). META-rank score is a composite measure that considers the optimal impact on all 3 phenotypes (e.g. decrease VCAM1, ICAM1, and IL6) in the HLMVEC model.

Where only a bound is given, the exact number is not on record here.

For the compound `NC(=O)CC[C@H](N)C(=O)O` [Glutamine, L-glutamine], the “sICAM-1 levels” value in assay [1] (0.5 ng/mL TNF-α (low), 20×HMDB, 24 h) is recorded as “failed to reduce”. The results for the “sICAM-1 expression relative to TNF Control, Mean % Change” value in assay [1] (TNF Conc 0.5 ng/mL) and in assay [1] (TNF Conc 25 ng/mL) were 5.573% and 142.4986%, respectively. In addition, the “sICAM-1 level increased by” value in assay [1] (TNF-α 25 ng/mL, 20×HMDB, 24 h) was 142%. The “sVCAM-1 expression relative to TNF Control, Mean % Change” value in assay [2] (TNF Conc 0.5 ng/mL) worked out at 566.0015%; in assay [2] (TNF Conc 25 ng/mL), 755.2941%. For the same compound, in assay [2] (both TNF-α groups), the “increase in sVCAM-1 level relative to control” value is listed as greater than 570%. The “IL-6 expression relative to TNF Control, Mean % Change” value in assay [3] (TNF Conc 0.5 ng/mL) is given as −1.168%; in assay [3] (TNF Conc 25 ng/mL), 14.3622%. Besides, the “lowering IL-6” value in assay [3] (either TNF-α group) is “largely ineffective”.

For the compound `CC(=O)N[C@@H](CS)C(=O)O` [N-Acetyl Cysteine, N-acetylcysteine], the “ROS measured in whole blood” value in assay [4] is “reduced”. In addition, in assay [5], the “Meta-Rank (Table 18)” value is on record as 4 and the “Metarank (Table 17)” value is reported as 6.

Values taken from patent US20230000808A1, “COMPOSITIONS AND METHODS EXCLUDING OR WITH REDUCED GLUTAMINE FOR THE TREATMENT OF HEMOGLOBINOPATHIES AND THALASSEMIAS” (AXCELLA HEALTH INC., priority 2019, published 2023).
